The source of these data is BindingDB's records for PubMed 39167893 (University of Petroleum and Energy Studies).

SMILES strings stand for the structures.

This experiment concerns the target KRas/Son of Sevenless Homolog 1 (Homo sapiens, UniProt P01116+Q07889). Briefly: Inhibition of KRAS G12D mutant/SOS1 (unknown origin) interaction by TR-FRET assay.

Chain of KRas/Son of Sevenless Homolog 1 (P01116 whole entry G12D): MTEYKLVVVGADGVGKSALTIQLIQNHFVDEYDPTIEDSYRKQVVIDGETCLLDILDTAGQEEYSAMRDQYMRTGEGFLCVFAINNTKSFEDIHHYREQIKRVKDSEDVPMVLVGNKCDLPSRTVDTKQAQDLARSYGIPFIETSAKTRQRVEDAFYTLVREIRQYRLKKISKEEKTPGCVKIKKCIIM
Chain of KRas/Son of Sevenless Homolog 1 (Q07889 whole entry): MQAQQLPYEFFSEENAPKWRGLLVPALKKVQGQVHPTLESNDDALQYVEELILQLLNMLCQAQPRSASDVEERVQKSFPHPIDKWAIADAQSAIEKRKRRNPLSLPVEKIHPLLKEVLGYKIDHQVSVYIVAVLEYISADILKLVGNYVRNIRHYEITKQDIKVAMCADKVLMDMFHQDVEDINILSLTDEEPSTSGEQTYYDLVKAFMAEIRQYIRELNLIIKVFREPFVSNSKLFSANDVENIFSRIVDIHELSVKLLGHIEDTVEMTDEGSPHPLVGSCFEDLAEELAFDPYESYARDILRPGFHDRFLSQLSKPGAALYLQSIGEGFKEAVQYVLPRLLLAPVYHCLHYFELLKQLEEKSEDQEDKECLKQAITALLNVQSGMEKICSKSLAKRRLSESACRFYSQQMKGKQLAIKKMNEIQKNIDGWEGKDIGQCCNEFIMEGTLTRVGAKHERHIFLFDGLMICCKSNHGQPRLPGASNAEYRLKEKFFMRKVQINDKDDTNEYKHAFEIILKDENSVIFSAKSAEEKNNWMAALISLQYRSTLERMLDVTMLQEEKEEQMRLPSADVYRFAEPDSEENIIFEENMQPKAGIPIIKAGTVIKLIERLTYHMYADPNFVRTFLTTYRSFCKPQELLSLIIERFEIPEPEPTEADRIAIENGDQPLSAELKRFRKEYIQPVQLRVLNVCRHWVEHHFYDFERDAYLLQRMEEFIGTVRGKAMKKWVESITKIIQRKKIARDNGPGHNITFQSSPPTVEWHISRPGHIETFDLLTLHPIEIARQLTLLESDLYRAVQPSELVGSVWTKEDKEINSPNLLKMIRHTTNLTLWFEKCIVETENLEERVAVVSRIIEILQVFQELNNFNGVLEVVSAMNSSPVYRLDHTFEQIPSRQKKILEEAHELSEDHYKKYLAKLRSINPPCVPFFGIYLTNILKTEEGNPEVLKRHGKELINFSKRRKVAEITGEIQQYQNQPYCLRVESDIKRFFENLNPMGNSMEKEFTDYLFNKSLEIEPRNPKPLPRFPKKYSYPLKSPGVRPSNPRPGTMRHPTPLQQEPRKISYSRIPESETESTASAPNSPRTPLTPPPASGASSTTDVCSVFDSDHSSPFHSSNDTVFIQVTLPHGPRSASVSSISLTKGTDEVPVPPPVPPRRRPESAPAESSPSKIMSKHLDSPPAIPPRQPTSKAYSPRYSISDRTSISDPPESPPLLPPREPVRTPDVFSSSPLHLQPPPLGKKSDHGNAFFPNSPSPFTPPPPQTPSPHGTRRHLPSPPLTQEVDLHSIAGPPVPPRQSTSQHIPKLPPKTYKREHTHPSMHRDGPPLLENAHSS

On to `Cn1cnc(Cn2ccc3ccc(CNCc4[nH]c5ccccc5c4[C@H]4NC(=O)c5ccc(O)cc54)cc32)c1`, for which it took 450 nM to reach half-maximal inhibition (IC50).

As usually defined, the IC50 is the concentration at which inhibition is half-maximal. Low readings indicate higher potency, high ones lower potency.
